Values quoted from earlier work, collected in the CATMoS acute toxicity set (Mansouri et al. 2021).
“And” between values parts separate entries of the source, which are not always exact repeats. Equal values may be shown once.

Assay: rat acute oral toxicity
Settings: in vivo

SMILES	LD50
CNC(=O)Oc1ccc(CCC#N)cc1	620 mg/kg
CCc1cc2c(cc1C(C)=O)C(C)(C)CCC2(C)C	260 mg/kg
CN(C(=O)c1cc(C(F)(F)F)cc(C(F)(F)F)c1)c1nc(C(F)(F)F)c(Cl)s1	501 mg/kg
CCOP(=S)(OCC)Oc1ccc([N+](=O)[O-])c(Cl)c1	50 mg/kg
NCCOS(N)(=O)=O	7460 mg/kg
CC(=O)OC1CCC(N2CCCCC2)CC1 (centres undefined)	1950 mg/kg
CC(c1ccccc1)N(C)C (centres undefined)	420 mg/kg
O=[N+]([O-])CCCO	77 mg/kg
COC1CC=C2CCN3CCC4=C(CC(=O)OC4)C23C1 (centres undefined)	320 mg/kg
CCC1OC(C)C(=NOC(=O)NC)S1 (centres undefined)	8 mg/kg
COP(=O)(Oc1cc(Cl)c(Br)cc1Cl)c1ccccc1 (centres undefined)	118 mg/kg
CCOC(=O)[C@H](CCc1ccccc1)N[C@@H](C)C(=O)N1C(=O)N(C)C[C@H]1C(=O)O	3540 mg/kg
O=[N+]([O-])C(CO)(CO)CO	1900 mg/kg
CC(C)(C)OOC(=O)C(C)(C)C	4300 mg/kg
C[N+](C)(N)CCCl	3400 mg/kg
NC1Cc2ccccc2C1	326 mg/kg
C1=Cc2cccc(OCC3CNCCO3)c2C1 (centres undefined)	502 mg/kg
CNC(=O)ON=C(SC)c1ccc(Cl)cc1	670 mg/kg
CNNC	100 mg/kg and 257 mg/kg
CN(C)N=Nc1ccc(F)cc1	326 mg/kg

SMILES	LD50
c1ccc2c(c1)Oc1ccccc1O2	1220 mg/kg
C=CC(C)=CCCC(C)(C)O	1700 mg/kg
CCC(CC)C(=O)OCC(Cl)(Cl)Cl	900 mg/kg
O=C(O)Cc1cc(O)ccc1Nc1c(Cl)cccc1Cl	1430 mg/kg
Nc1cccc2c(Cl)ccc(Cl)c12	3490 mg/kg
CCCC(=O)c1ccc2c(c1)N(CCCN(C)C)c1ccccc1S2	300 mg/kg
CNC(=S)N(C)C	316 mg/kg
Clc1ccc2c(c1)C(c1ccccc1)=NCc1nncn1-2	2500 mg/kg
C=C(C)C(C)=O	180 mg/kg
O=C(O)CN(CCOCCOCCN(CC(=O)O)CC(=O)O)CC(=O)O	4000 mg/kg and 3590 mg/kg
CCNC(C)c1ccccc1 (centres undefined)	360 mg/kg
CCOC(=O)Nc1ccc2c(c1)N(C(=O)CCN1CCN(CCO)CC1)c1ccccc1CC2	147 mg/kg
COP(=O)(OC)SCCSC	20 mg/kg
CCN(CC)c1ccc(C=O)cc1	6400 mg/kg
c1ccc2c(C(CCN3CCOCC3)CCN3CCOCC3)cccc2c1	708 mg/kg
CC1CN(C2CCCCCCCCCCC2)CC(C)O1 (centres undefined)	2640 mg/kg and 2500 mg/kg
COP(=O)(OC)SC	15 mg/kg
Nc1ccc(I)cc1	523 mg/kg
CC1=C(C)C(=O)C(C(CCCCCC(=O)O)c2ccccc2)=C(C)C1=O (racemic)	3750 mg/kg
COc1cc(C2c3cc4c(cc3C(OC3OC5COC(c6ccccc6)OC5C(O)C3O)C3COC(=O)C23)OCO4)cc(OC)c1O (centres undefined)	823 mg/kg

SMILES	LD50
CNC(=O)Oc1ccccc1C1OCC=CCO1	35 mg/kg
C=CCOc1ccccc1C(=O)N(C)C	740 mg/kg
CCOP(=S)(OCC)SCN1C(=O)c2ccccc2C1=O	43 mg/kg
CCOC(=O)N(Cc1ccccc1)C1CC1	1380 mg/kg
C1OC1CSCC1CO1 (centres undefined)	32 mg/kg
COc1ccccc1N1CCN(CCCOc2ccc(N)cc2)CC1	416 mg/kg
O=C1CN(N=Cc2ccc(-c3ccc([N+](=O)[O-])cc3)o2)C(=O)N1	7430 mg/kg
CC12CCC(C(Br)C1=O)C2(C)C (centres undefined)	4450 mg/kg
O=[N+]([O-])c1cncn1CCN1CCOCC1	1540 mg/kg
Clc1ccc(Sc2cc(Cl)c(Cl)cc2Cl)cc1	3960 mg/kg
NNC(=O)CSc1cc(Oc2ccccc2)ncn1	220 mg/kg
Cc1ccc2c(Cl)cc(Cl)c(O)c2n1	660 mg/kg
COc1ccc2cc(CCC(C)=O)ccc2c1	3880 mg/kg
CCOc1ccc(Cc2nc(C)cc3cc(OC)c(OC)cc23)cc1OC	1960 mg/kg and 2070 mg/kg
Fc1c(Br)c(Cl)c2nc(C(F)(F)F)[nH]c2c1Br	6.28 mg/kg
COc1ccc2c(c1)c(CC(=O)OC(C)c1ccccc1)c(C)n2C(=O)c1ccc(Cl)cc1 (centres undefined)	425 mg/kg
CCCN(CCC)c1c([N+](=O)[O-])cc(C(F)(F)F)cc1[N+](=O)[O-]	1930 mg/kg
C1C2OC2C2C1C1CC2C2OC12 (centres undefined)	210 mg/kg
CCCCOC(=O)COc1cc(Cl)c(Cl)cc1Cl	481 mg/kg
